Experiments:
DIGSA [1] = assay: Post-emergence action at 320 g/ha against DIGSA; assay type: in vivo, Digitaria sanguinalis; details: dosage 320 g/ha, visual rating about 3 weeks after treatment vs untreated controls (100% = plants died)
Method in brief: (§1)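 Herbicidal effect is scored by eye about 3 weeks after a foliar spray and expressed as percent activity, with untreated plants as 0% and dead plants as 100%. Treatment is applied at the one-leaf stage of greenhouse-grown, soil-sown plants, at a water rate of 600 l/ha containing 0.5% additive.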

LOLRI = assay: Pre-emergence action at 320 g/ha against LOLRI; assay type: in vivo, Lolium rigidum; details: visual scoring after about 3 weeks vs untreated controls
Method in brief: (§2)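 Application: aqueous WP or EC with 0.5% additive on soil covering seeds, 600 l/ha. Read-out: visual percent damage after ~3 weeks in greenhouse, untreated pots as reference.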

DIGSA [2] = assay: Pre-emergence action against DIGSA, 1280 g/ha; assay type: in vivo, Digitaria sanguinalis; details: visual scoring after about 3 weeks vs untreated controls, 100% = plants have died, 0% = like control plants
Method in brief: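 Sandy loam pots, seeds covered with soil; aqueous WP/EC spray on covering soil, 0.5% additive, 600 L/ha. Greenhouse growth, good conditions. Readout: visual % activity at ~3 weeks (0% = like control, 100% = dead).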

ABUTH = assay: Post-emergence action against ABUTH, 1.28 kg/ha; assay type: in vivo, Abutilon theophrasti; details: dosage 1280 g/ha, visual rating about 3 weeks after treatment vs untreated controls (100% = plants died)
Method in brief: (§3)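 Weeds grown in sandy loam in a greenhouse were sprayed at the one-leaf stage, 2–3 weeks after sowing, with WP or EC formulations in water containing 0.5% additive at 600 L/ha. About 3 weeks later, damage was scored visually versus untreated controls (0% = like control, 100% = dead).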

MATIN [3] = assay: Post-emergence action against MATIN, 1.28 kg/ha; assay type: in vivo, Tripleurospermum inodorum (Matricaria inodora); details: dosage 1280 g/ha, visual rating about 3 weeks after treatment vs untreated controls (100% = plants died)
Method in brief: as §3

AMARE = assay: Post-emergence action against AMARE, 1.28 kg/ha; assay type: in vivo, Amaranthus retroflexus; details: dosage 1280 g/ha, visual rating about 3 weeks after treatment vs untreated controls (100% = plants died)
Method in brief: as §3

ALOMY [4] = assay: Post-emergence action against ALOMY, 1.28 kg/ha; assay type: in vivo, Alopecurus myosuroides; details: dosage 1280 g/ha, visual rating about 3 weeks after treatment vs untreated controls
Method in brief: as §3

VERPE = assay: Post-emergence action against VERPE, 1.28 kg/ha; assay type: in vivo, Veronica persica; details: dosage 1280 g/ha, visual rating about 3 weeks after treatment vs untreated controls (100% = plants died)
Method in brief: as §3

MATIN [5] = assay: Pre-emergence action at 320 g/ha against MATIN; assay type: in vivo, Tripleurospermum inodorum (Matricaria inodora); details: visual scoring after about 3 weeks vs untreated controls
Method in brief: as §2

ALOMY [6] = assay: Post-emergence action against ALOMY, 320 g/ha; assay type: in vivo, Alopecurus myosuroides; details: dosage 320 g/ha, visual rating about 3 weeks after treatment vs untreated controls (100% = plants died)
Method in brief: as §1

STEME = assay: Post-emergence action against STEME, 1.28 kg/ha; assay type: in vivo, Stellaria media; details: dosage 1280 g/ha, visual rating about 3 weeks after treatment vs untreated controls (100% = plants died)
Method in brief: as §3

ECHCG = assay: Post-emergence action against ECHCG, 1.28 kg/ha; assay type: in vivo, Echinochloa crus-galli; details: dosage 1280 g/ha, visual rating about 3 weeks after treatment vs untreated controls
Method in brief: as §3

SETVI = assay: Post-emergence action at 320 g/ha against SETVI; assay type: in vivo, Setaria viridis; details: visual rating about 3 weeks after treatment vs untreated controls
Method in brief: as §1

PHBPU = assay: Post-emergence action at 320 g/ha against PHBPU; assay type: in vivo; details: visual rating about 3 weeks after treatment vs untreated controls
Source text: Accordingly, the compounds of the invention have good herbicidal action against a broad spectrum of weed grasses and broad-leaved weeds and are therefore suitable for controlling unwanted vegetation by the post-emergence method. • b) Seeds of monocotyledonous and dicotyledonous weeds and crop plants are placed in sandy loam in plastic or organic planting pots, covered with soil and cultivated in a greenhouse under controlled growth conditions. 2 to 3 weeks after sowing, the test plants are treated at the one-leaf stage. The compounds of the invention, formulated in the form of wettable powders (WP) or as emulsion concentrates (EC), are then sprayed onto the green parts of the plants as aqueous suspension or emulsion with addition of 0.5% additive at a water application rate of 600 l/ha (converted). After the test plants have been kept in the greenhouse under optimum growth conditions for about 3 weeks, the activity of the preparations is rated visually in comparison to untreated controls. For example, 100% activity=the plants have died, 0% activity=like control plants. Tables 39 to 49 below show the effects of selected compounds of the general formula (I) according to Tables 1 and 2 on various harmful plants and at an application rate corresponding to 320 g/ha, which were obtained by the experimental procedure mentioned above.

For CCOC(=O)C(C)Oc1nn(-c2ccccc2F)c(-c2ccc(F)nc2)c1C(F)(F)F (stereo not shown) [VII-066], the “Post-emergence action at 320 g/ha against DIGSA in %” value (DIGSA [1]) was 90%, the “Pre-emergence action against LOLRI in %” value (LOLRI) was 90% and the “Pre-emergence action against DIGSA” value (DIGSA [2]) was 100%. For the same compound, the “Post-emergence action against ABUTH” value (ABUTH) was 90%, the “Post-emergence action against MATIN” value (MATIN [3]) was 90% and the “Post-emergence action against AMARE” value (AMARE) was 90%. The “Post-emergence action against ALOMY” value (ALOMY [4]) was 100%, the “Post-emergence action against VERPE” value (VERPE) was 90% and the “Pre-emergence action against MATIN in %” value (MATIN [5]) was 100%. The “Post-emergence action against ALOMY” value (ALOMY [6]) was 90%, the “Post-emergence action against STEME” value (STEME) was 100% and the “Post-emergence action against ECHCG” value (ECHCG) was 100%.
With O=C(COc1nn(-c2ccccc2F)c(-c2ccc(F)nc2)c1Br)OCC1CCOC1 (stereo not shown) [VII-091] the “Post-emergence action at 320 g/ha against DIGSA in %” value (DIGSA [1]) was 90%, the “Pre-emergence action against LOLRI in %” value (LOLRI) was 100% and the “Pre-emergence action against DIGSA” value (DIGSA [2]) was 100%. For the same compound, the “Post-emergence action against ABUTH” value (ABUTH) was 90%, the “Post-emergence action against MATIN” value (MATIN [3]) was 90% and the “Post-emergence action against AMARE” value (AMARE) was 90%. The “Post-emergence action against ALOMY” value (ALOMY [4]) was 100%, the “Post-emergence action against VERPE” value (VERPE) was 100% and the “Pre-emergence action against MATIN in %” value (MATIN [5]) was 90%. The “Post-emergence action against ALOMY” value (ALOMY [6]) was 90%, the “Post-emergence action against STEME” value (STEME) was 90% and the “Post-emergence action against SETVI in %” value (SETVI) was 80%. For the same compound, the “Post-emergence action against ECHCG” value (ECHCG) was 100%.
In the case of O=C(COc1nn(-c2ccccc2F)c(-c2ccc(F)nc2)c1Br)OCC1OCCO1 [VII-103], the “Post-emergence action at 320 g/ha against DIGSA in %” value (DIGSA [1]) is reported as 90%, the “Pre-emergence action against LOLRI in %” value (LOLRI) is reported as 100% and the “Pre-emergence action against DIGSA” value (DIGSA [2]) is reported as 100%. The “Post-emergence action against MATIN” value (MATIN [3]) was 90%, the “Post-emergence action against PHBPU in %” value (PHBPU) was 80% and the “Post-emergence action against AMARE” value (AMARE) was 90%. The “Post-emergence action against ALOMY” value (ALOMY [4]) was 100%, the “Post-emergence action against VERPE” value (VERPE) was 100% and the “Pre-emergence action against MATIN in %” value (MATIN [5]) was 90%. For the same compound, the “Post-emergence action against ALOMY” value (ALOMY [6]) was 100%, the “Post-emergence action against SETVI in %” value (SETVI) was 80% and the “Post-emergence action against ECHCG” value (ECHCG) was 100%.
COC(=O)[C@H](C)Oc1nn(-c2cc(F)ccc2F)c(-c2ccc(F)nc2)c1Br [VII-107] was tested, and the “Post-emergence action at 320 g/ha against DIGSA in %” value (DIGSA [1]) was 90%, the “Pre-emergence action against LOLRI in %” value (LOLRI) was 80% and the “Pre-emergence action against DIGSA” value (DIGSA [2]) was 100%. The “Post-emergence action against ABUTH” value (ABUTH) was 90%, the “Post-emergence action against MATIN” value (MATIN [3]) was 100% and the “Post-emergence action against AMARE” value (AMARE) was 100%. For the same compound, the “Post-emergence action against ALOMY” value (ALOMY [4]) was 100%, the “Post-emergence action against VERPE” value (VERPE) was 100% and the “Pre-emergence action against MATIN in %” value (MATIN [5]) was 90%. The “Post-emergence action against ALOMY” value (ALOMY [6]) was 90%, the “Post-emergence action against STEME” value (STEME) was 100% and the “Post-emergence action against SETVI in %” value (SETVI) was 80%. The “Post-emergence action against ECHCG” value (ECHCG) was 100%.
CCOC(=O)COc1nn(-c2ccccc2F)c(-c2ccc(F)nc2)c1C [VII-117] was tested, and the “Post-emergence action at 320 g/ha against DIGSA in %” value (DIGSA [1]) was 90%, the “Pre-emergence action against LOLRI in %” value (LOLRI) was 100% and the “Pre-emergence action against DIGSA” value (DIGSA [2]) was 100%. The “Post-emergence action against MATIN” value (MATIN [3]) was 90%, the “Post-emergence action against AMARE” value (AMARE) was 100% and the “Post-emergence action against VERPE” value (VERPE) was 100%. For the same compound, the “Pre-emergence action against MATIN in %” value (MATIN [5]) was 90%, the “Post-emergence action against ALOMY” value (ALOMY [6]) was 90% and the “Post-emergence action against SETVI in %” value (SETVI) was 80%. For the same compound, the “Post-emergence action against ECHCG” value (ECHCG) was 100%.
With COC(=O)[C@@H](C)Oc1nn(-c2cc(F)ccc2F)c(-c2cncc(F)c2)c1C#N [VII-147] the “Pre-emergence action against LOLRI in %” value (LOLRI) was 100%, the “Pre-emergence action against DIGSA” value (DIGSA [2]) was 100% and the “Post-emergence action against ABUTH” value (ABUTH) was 90%. For the same compound, the “Post-emergence action against MATIN” value (MATIN [3]) was 100%, the “Post-emergence action against PHBPU in %” value (PHBPU) was 90% and the “Post-emergence action against AMARE” value (AMARE) was 100%. For the same compound, the “Post-emergence action against ALOMY” value (ALOMY [4]) was 100%, the “Post-emergence action against VERPE” value (VERPE) was 100% and the “Pre-emergence action against MATIN in %” value (MATIN [5]) was 90%. For the same compound, the “Post-emergence action against ALOMY” value (ALOMY [6]) was 90%, the “Post-emergence action against STEME” value (STEME) was 100% and the “Post-emergence action against SETVI in %” value (SETVI) was 80%. The “Post-emergence action against ECHCG” value (ECHCG) was 100%.

— patent US12180187B2, “1-phenyl-5-azinylpyrazolyl-3-oxyalkyl acids and their use for controlling unwanted plant growth” (BAYER AKTIENGESELLSCHAFT, priority 2019, dated 2024)
